Test results taken from patent US7026281B1, “Antagonistic analogs of GH-RH inhibiting IGF-I and -II” (The Administrators of the Tulane Educational Fund, priority 1998, dated 2006).
Square brackets hold non-standard residues; d marks the D form. Peptide text beside a SMILES is read from it. * marks the point of attachment. Phe(4-Cl) = N[C@@H](Cc1ccc(Cl)cc1)C(=O)O; hArg = N=C(N)NCCCC[C@H](N)C(=O)O; X1 = O=C(Cc1c[nH]c2ccccc12)*; Nle = CCCC[C@H](N)C(=O)O; Abu = CC[C@H](N)C(=O)O; PhAc = O=C(Cc1ccccc1)*

Tests used:
[1] = target: T1, rat pituitary GH-RH receptors (Rattus norvegicus, UniProt Q02644); experiment: GH-RH radioreceptor binding assay, rat anterior pituitary membrane homogenates; conditions: for Ki: competition with [His1,125I-Tyr10,Nle27]hGH-RH(1–32)NH2; for R.A. (relative affinity compared to Standard antagonist): ratio of Ki values
T1 construct: from tissue; host or cells: anterior pituitary of male Sprague-Dawley rats, crude membrane homogenates
T1 sequence (Q02644 23-464): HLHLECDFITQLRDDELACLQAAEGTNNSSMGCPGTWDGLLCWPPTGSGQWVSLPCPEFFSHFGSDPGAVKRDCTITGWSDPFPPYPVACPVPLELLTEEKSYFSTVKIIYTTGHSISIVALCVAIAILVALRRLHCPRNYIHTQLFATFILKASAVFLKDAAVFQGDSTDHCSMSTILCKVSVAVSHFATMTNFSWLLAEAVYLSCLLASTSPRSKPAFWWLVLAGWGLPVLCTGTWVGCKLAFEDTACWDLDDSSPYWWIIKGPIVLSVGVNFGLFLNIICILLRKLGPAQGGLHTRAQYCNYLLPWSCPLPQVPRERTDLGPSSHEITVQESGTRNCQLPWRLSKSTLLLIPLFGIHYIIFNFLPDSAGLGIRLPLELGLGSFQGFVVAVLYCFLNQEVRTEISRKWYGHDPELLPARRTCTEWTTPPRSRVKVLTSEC
Procedure: GH-RH Binding Assay. A sensitive radioreceptor binding assay was developed to determine the binding characteristics of the antagonists of GH-RH (G. Halmos, A. V. Schally et al., Receptor 3, 87–97, 1993), hereby incorporated by reference. The assay is based on binding of labelled [His^1,Nle^27]hGH-RH(1–32)NH2 to rat anterior pituitary membrane homogenates. Iodinated derivatives of [His^1,Nle^27]hGH-RH(1–32)NH2 are prepared by the chloramine-T method (F. C. Greenwood et al., Biochemistry 89:114–123, 1963), hereby incorporated by reference. Pituitaries from male Sprague-Dawley rats (250–300 g) are used to prepare crude membranes. For saturation binding analyses, membrane homogenates are incubated with at least 6 concentrations of [His^1,^125I-Tyr^10,Nle^27]hGH-RH(1–32) NH2, ranging from 0.005 to 0.35 nM in the presence or absence of excess unlabelled peptide (1 μM).
The pellet is counted for radioactivity in a γ-counter. The affinities of the antagonist peptides tested to rat pituitary GH-RH receptors are determined in competitive binding experiments. The final binding affinities are estimated by Ki (dissociation constant of the inhibitor-receptor complex) and are determined by the Ligand PC and McPherson computer programs of Munson and Rodbard (P. J. Munson and D. Rodbard, Anal. Biochem. 107. 220–239, 1980). Relative affinities compared to [Ac-Tyr^1,D-Arg^2]hGH-RH(1–29)NH2, the Standard antagonist, are calculated as the […].

[2] = tested on: hGH-RH(1–29)NH2 induced GH release; experiment: Inhibition of GH release in superfused rat pituitary system; type: cell-based; conditions: antagonist 30 nM; for Inhibition of GH release (%) 30 min: 1 nM hGH-RH(1–29)NH2 30 min later; for Inhibition of GH release (%) 60 min: 1 nM hGH-RH(1–29)NH2 60 min later; for Inhibition of GH release (%) 90 min: 1 nM hGH-RH(1–29)NH2 90 min later; for Inhibition of GH release (%) 120 min: 1 nM hGH-RH(1–29)NH2 120 min later; for Inhibition of GH release (%) 0 min: 1 nM hGH-RH(1–29)NH2 at 0 min
Procedure: Superfused Rat Pituitary System.
The analogs were tested in vitro in a test described earlier (S. Vigh and A. V. Schally, Peptides 5:241–347, 1984) with modification (Z. Rekasi and A. V. Schally, P.N.A.S. 90:2146–2149, 1993).
Briefly, the cells are preincubated with peptides for 9 minutes (3 mL) at various concentrations. Immediately after the incubation, 1 nM hGH-RH(1–29)NH2 is administered for 3 minutes (1 mL) [0 minute response]. To check the duration of the antagonistic effect of the analogue, 1 nM hGH-RH(1–29)NH2 is applied 30, 60, 90, and 120 minutes later for 3 minutes [30, 60, 90, 120 min responses]. Net integral values of the GH responses are evaluated. GH responses are compared to and expressed as percent of the original GH response induced by 1 nM GH-RH(1–29)NH2. The effect of the new antagonists are compared to that of [Ac-Tyr^1,D-Arg^2]hGH-RH(1–29)NH2, the “Standard antagonist”.
Growth Hormone Radio-immunoassay.
Rat GH levels in aliquots of undiluted and diluted superfusion samples were measured by double-antibody radioimmunoassay using materials supplied by the National Hormone and Pituitary Program, Baltimore, Md. The results of RIA were analyzed with a computer program developed in our institute (V. Csernus and A. V. Schally, in Neuroendocrine Research Methods, Harwood Academic (Greenstein, B. D. ed., London, pp. 71–109, 1991), hereby incorporated by reference. Inter-assay variation was less than 15% and intra-assay variation was less than 10%.

[3] = tested on: GH release stimulated by hGH-RH(1–29)NH2; experiment: In vivo inhibition of serum GH response in rats; set-up: species or system rat; conditions: for Inhibition of the GH release stimulated by hGH-RH(1–29)NH2 (in words): 80 μg/kg i.v., rats
Procedure: GH-RH antagonistic effect of the analogs was tested on young male Sprague-Dawley rats (200–250 g). In each experiment, 5 groups of 7 animals each were used. The compounds (80 μg/kg) and GH-RH(1–29)NH2 (3 μg/kg) were dissolved in 5.5% mannitol and given intravenously to the jugular vein of the rats under Nembutal anesthesia. The time elapsed between the administrations of the antagonist and GH-RH varied between groups, according to the following schedule. The first group of animals received GH-RH injection 5 min after the administration of the antagonist; for the second, third and fourth group of animals, the time interval elapsed between the injection of the antagonist and that of GH-RH was 15, 30, and 60 min, respectively. The control group was first injected with the solvent alone instead of the antagonist, followed by a GH-RH injection 5 min later.
0.4 mL blood samples were taken for GH RIA before the administration of the antagonist (“blood0”), and 5 min after the injection of GH-RH (“blood1”). The GH response in each group was calculated as rGH=(GHblood1/GHblood0), mean±S.E.M. of the individual differences. Relative inhibition of GH response (%) in each group treated was calculated as […].

[4] = antagonist 80 μg/kg i.v. 5 min before GH-RH
[5] = antagonist 80 μg/kg i.v. 15 min before GH-RH
[6] = antagonist 80 μg/kg i.v. 15 min before GH-RH 3 μg/kg
[7] = antagonist 80 μg/kg i.v. 30 min before GH-RH
[8] = antagonist 80 μg/kg i.v. 30 min before GH-RH 3 μg/kg
[9] = antagonist 80 μg/kg i.v. 60 min before GH-RH
[10] = antagonist 80 μg/kg i.v. 60 min before GH-RH 3 μg/kg
[11] = rGH=GHblood1/GHblood0, antagonist 80 μg/kg i.v. 5 min before GH-RH 3 μg/kg

Ki [1] [nM] | R.A. (relative affinity compared to Standard antagonist) [1] | SMILES | Inhibition of GH release (%) 30 min [2] [%] | Inhibition of GH release (%) 60 min [2] [%] | Inhibition of GH release (%) 90 min [2] [%] | Inhibition of GH release (%) 120 min [2] [%] | Inhibition of GH release (%) 0 min [2] [%] | Inhibition of the GH release stimulated by hGH-RH(1–29)NH2 (in words) [3] | Relative inhibition % of GH response [3, 4] [%] | Relative inhibition % of GH response [3, 5] [%] | GH response mean ± S.E.M. [3, 6] | Relative inhibition % of GH response [3, 7] [%] | GH response mean ± S.E.M. [3, 8] | Relative inhibition % of GH response [3, 9] [%] | GH response mean ± S.E.M. [3, 10] | GH response mean ± S.E.M. [3, 11]
0.07 | 42 | CCCC[C@H](NC(=O)[C@@H](NC(=O)[C@H](CC(=O)O)NC(=O)[C@H](CCC(N)=O)NC(=O)[C@H](CC(C)C)NC(=O)[C@H](CC(C)C)NC(=O)[C@H](CCCCN)NC(=O)[C@H](CCCNC(=N)N)NC(=O)[C@H](C)NC(=O)[C@H](CO)NC(=O)[C@H](CC(C)C)NC(=O)[C@H](CCC(N)=O)NC(=O)[C@H](CC)NC(=O)[C@H](CC(C)C)NC(=O)[C@@H](NC(=O)[C@H](CCCCN)NC(=O)[C@H](CCCNC(=N)N)NC(=O)[C@H](Cc1ccc(OC)cc1)NC(=O)[C@H](CO)NC(=O)[C@H](CC(N)=O)NC(=O)[C@@H](NC(=O)[C@H](Cc1ccc(Cl)cc1)NC(=O)[C@@H](NC(=O)[C@H](C)NC(=O)[C@H](CC(=O)O)NC(=O)[C@@H](CCCNC(=N)N)NC(=O)[C@H](Cc1ccc(O)cc1)NC(=O)Cc1ccccc1)[C@@H](C)CC)[C@@H](C)O)C(C)C)[C@@H](C)CC)C(=O)N[C@@H](CO)C(=O)N[C@H](CCCNC(=N)N)C(N)=O [Peptide 16, [PhAc^0, D-Arg^2, Phe(pCl)^6, Tyr(Me)^10, Abu^15, Nle^27, D-Arg^29]hGH-RH(1–29)NH2] (PhAc-Y[dR]DAI[Phe(4-Cl)]TNSY(Me)RKVL[Abu]QLSARKLLQDI[Nle]S[dR]-NH2) | 87 | 83 | 56 | 65 | 65 | strong and long-lasting inhibition | 77 | 70 | 3.44 ± 0.62 | 48 | 5.24 ± 1.36 | 0 | 9.19 ± 1.89 | 2.89 ± 0.65
0.046 | 64 | CCCC[C@H](NC(=O)[C@@H](NC(=O)[C@H](CC(=O)O)NC(=O)[C@H](CCC(N)=O)NC(=O)[C@H](CC(C)C)NC(=O)[C@H](CC(C)C)NC(=O)[C@H](CCCCN)NC(=O)[C@H](CCCNC(=N)N)NC(=O)[C@H](C)NC(=O)[C@H](CO)NC(=O)[C@H](CC(C)C)NC(=O)[C@H](CCC(N)=O)NC(=O)[C@H](CC)NC(=O)[C@H](CC(C)C)NC(=O)[C@@H](NC(=O)[C@H](CCCCN)NC(=O)[C@H](CCCNC(=N)N)NC(=O)[C@H](Cc1ccc(O)cc1)NC(=O)[C@H](CCCNC(=N)N)NC(=O)[C@H](CC(N)=O)NC(=O)[C@@H](NC(=O)[C@H](Cc1ccc(Cl)cc1)NC(=O)[C@@H](NC(=O)[C@H](C)NC(=O)[C@H](CC(=O)O)NC(=O)[C@@H](CCCNC(=N)N)NC(=O)[C@H](Cc1ccc(O)cc1)NC(=O)Cc1c[nH]c2ccccc12)[C@@H](C)CC)[C@@H](C)O)C(C)C)[C@@H](C)CC)C(=O)N[C@H](CCCNC(=N)N)C(=O)N[C@@H](CCCCNC(=N)N)C(N)=O [Peptide 2, [IndAc^0, D-Arg^2, Phe(pCl)^6, Arg^9, Abu^15, Nle^27, D-Arg^28, Har^29]hGH-RH(1–29)NH2] (X1-Y[dR]DAI[Phe(4-Cl)]TNRYRKVL[Abu]QLSARKLLQDI[Nle][dR][hArg]-NH2) | 100 | 100 | 100 | 91 | 100 | strong and long-lasting inhibition | 91 | 45 | 3.45 ± 0.13 | 41 | 3.64 ± 0.71 | 2 | 5.41 ± 1.35 | 1.40 ± 0.29
